Each structure is given as a SMILES string. Where two headings read alike, the source gives them in different places.

Series [1] has as its system Phaedon cochleariae. The series can be described thus: Phaedon cochleariae spray test. The class given is in vivo. The note with it: 500 g/ha, after 7 days, larvae on Chinese cabbage leaf discs. The protocol: Phaedon cochleariae—Spray Test
(§1) Solvent: 78.0 parts by weight of acetone • • 1.5 parts by weight of dimethylformamide
(§2) Emulsifier: alkylaryl polyglycol ether
(§3) To produce a suitable preparation of active compound, 1 part by weight of active compound is dissolved using the stated parts by weight of solvent and made up with water containing an emulsifier concentration of 1000 ppm until the desired concentration is attained. To produce further test concentrations, the preparation is diluted with emulsifier-containing water.
After 7 days, the efficacy in % is determined. 100% means that all the beetle larvae have been killed; 0% means that no beetle larvae have been killed.

Series [2] deals with Myzus persicae. As to the kind of experiment: Myzus persicae spray test (Chinese cabbage leaf discs). The class given is in vivo. The note with it: 500 g/ha, after 6 days. How it is done: Myzus persicae—Spray Test Solvent: 78 parts by weight of acetone • • 1.5 parts by weight of dimethylformamide Emulsifier: alkylaryl polyglycol ether […] To produce further test concentrations, the preparation is diluted with emulsifier-containing water. Discs of Chinese cabbage leaves (Brassica pekinensis) infested by all stages of the green peach aphid (Myzus persicae) are sprayed with an active compound preparation of the desired concentration.

The subject of series [3] is Lucilia cuprina. The series can be described thus: Lucilia cuprina test. It counts as in vivo. The note with it: 100 ppm, after 2 days, L1 larvae. How it is done:
(§4) Solvent: dimethyl sulphoxide
(§5) To produce a suitable preparation of active compound, 10 mg of active compound are mixed with 0.5 ml of dimethyl sulphoxide, and the concentrate is diluted with water to the desired concentration.
About 20 L1 larvae of the Australian sheep blowfly (Lucilia cuprina) are transferred into a test vessel containing minced horsemeat and the active compound preparation of the desired concentration.
After 2 days, the kill in % is determined. 100% means that all the larvae have been killed; 0% means that no larvae have been killed.

Series [4] deals with Ctenocephalides felis. The series can be described thus: Ctenocephalides felis oral test. It counts as in vivo. The conditions noted are these: 100 ppm in citrated cattle blood, after 2 days. An excerpt: Ctenocephalides felis—Oral Test Solvent: dimethyl sulphoxide […] Dilution with citrated cattle blood gives the desired concentration. About 20 unfed adult cat fleas (Ctenocephalides felis) are placed into a chamber which is closed at the top and bottom with gauze. A metal cylinder whose bottom end is closed with parafilm is placed onto the chamber. The cylinder contains the blood/active compound preparation, which can be imbibed by the fleas through the parafilm membrane.

Series [5] concerns Musca domestica. As to the kind of experiment: Musca domestica test. It counts as in vivo. The conditions noted are these: after 2 days, adult houseflies. The protocol: as §4, §5
Vessels containing a sponge treated with sugar solution and the active compound preparation of the desired concentration are populated with 10 adult houseflies (Musca domestica).
After 2 days, the kill in % is determined. 100% means that all of the flies have been killed; 0% means that none of the flies have been killed.

Series [6] concerns Ctenocephalides felis. As to the kind of experiment: Ctenocephalides felis in vitro contact test with adult cat fleas. The conditions noted are these: 5 μg/cm^2 (500 g/ha), after 48 h. It counts as in vivo. The protocol: Ctenocephalides felis—In Vitro Contact Tests with Adult Cat Fleas
For the coating of the test tubes, 9 mg of active compound are first dissolved in 1 ml of acetone p.a. and then diluted to the desired concentration with acetone p.a. 250 μl of the solution are distributed homogeneously on the inner walls and the base of a 25 ml test tube by turning and rocking on an orbital shaker (rocking rotation at 30 rpm for 2 h). With 900 ppm active compound solution and internal surface 44.7 cm^2, given homogeneous distribution, an area-based dose of 5 μg/cm^2 is achieved.
After the solvent has evaporated off, the tubes are populated with 5-10 adult cat fleas (Ctenocephalides felis), sealed with a perforated plastic lid and incubated in a horizontal position at room temperature and ambient humidity. After 48 h, efficacy is determined. To this end, the test tubes are stood upright and the fleas are knocked to the base of the tube. Fleas which remain motionless at the base or move in an uncoordinated manner are considered to be dead or moribund.
100% efficacy means that all the fleas were dead or moribund. 0% efficacy means that no fleas were harmed.

In series [7] the test system is Tetranychus urticae. The series can be described thus: Tetranychus urticae spray test, OP-resistant. It counts as in vivo. The conditions noted are these: after 6 days, bean leaf discs. The protocol: Tetranychus urticae—Spray Test, OP-Resistant
as §1, §2, §3
Discs of bean leaves (Phaseolus vulgaris) infested with all stages of the greenhouse red spider mite (Tetranychus urticae) are sprayed with an active compound preparation of the desired concentration.
After 6 days, the efficacy in % is determined. 100% means that all the spider mites have been killed; 0% means that no spider mites have been killed.

The subject of series [8] is Spodoptera frugiperda. The series can be described thus: Spodoptera frugiperda spray test (maize leaf discs). The conditions noted are these: 500 g/ha, after 7 days, caterpillars on maize leaf discs. The class given is in vivo. The protocol:
Spodoptera frugiperda—Spray Test Solvent: 78.0 parts by weight of acetone • • 1.5 parts by weight of dimethylformamide Emulsifier: alkylaryl polyglycol ether […] To produce further test concentrations, the preparation is diluted with emulsifier-containing water. Leaf discs of maize (Zea mays) are sprayed with an active compound preparation of the desired concentration and, after drying, populated with caterpillars of the armyworm (Spodoptera frugiperda).

Series [9] deals with Boophilus microplus. The series can be described thus: Boophilus microplus injection test. The conditions noted are these: 20 μg/animal, assessed after 7 days. It counts as in vivo. The protocol: Boophilus microplus—Injection Test
as §4
To produce a suitable preparation of active compound, 10 mg of active compound are mixed with 0.5 ml of solvent and the concentrate is diluted with solvent to the desired concentration.
1 μl of the active compound solution is injected into the abdomen of 5 engorged adult female cattle ticks (Boophilus microplus). The animals are transferred into dishes and kept in a climate-controlled room.
Efficacy is assessed after 7 days by laying of fertile eggs. Eggs which are not visibly fertile are stored in a climate-controlled cabinet until the larvae hatch after about 42 days. An efficacy of 100% means that none of the ticks has laid any fertile eggs; 0% means that all the eggs are fertile.

Series [10] is described as follows: log P by HPLC on reversed-phase column (EEC Directive 79/831 Annex V.A8). It counts as physicochemical. The conditions noted are these: pH 7.8, 0.001 molar aqueous ammonium hydrogencarbonate/acetonitrile, 55° C., read-out: log P (neutral). An excerpt:
Called log P (neutral) in the table.

Setting [11] is: reversed-phase HPLC column (C18).

As for `CCS(=O)(=O)c1ccc(-n2cnc(Cl)n2)nc1-c1nc2cc(C(F)(F)F)ncc2n1C` [Example 18], the efficacy in series [1], in [2] and in series [6] was 100% in each case. Moreover, the “efficacy (kill)” value in series [3], in [4] and in [5] (20 ppm) was 100% each time.

For the molecule `CCS(=O)(=O)c1ccc(-n2ccc(C[S+](C)[O-])n2)nc1-c1nc2cc(C(F)(F)F)ncc2n1C` (centres unmarked) [Example 49], the efficacy in series [1] stood at 100%; in series [2], 90%; in series [7] (500 g/ha), 90%.

Take `CCS(=O)(=O)c1ccc(-n2ccc(C(F)(F)F)n2)nc1-c1nc2cc(C(F)(F)F)ncc2n1C` [Example 25]: the efficacy in [1] and in [8] was 100% each time. The “efficacy (laying of fertile eggs)” value in series [9] is given as 80%. Moreover, the “efficacy (kill)” value in [3] and in [4] was 100% each time.

Consider `CCS(=O)(=O)c1ccc(-c2ccsc2)nc1-c1nc2cc(C(F)(F)F)ncc2n1C` [Example 20, 2-[3-Ethylsulphonyl-6-(3-thienyl)-2-pyridyl]-3-methyl-6-(trifluoromethyl)imidazo[4,5-c]pyridine], for which, in series [3], the “efficacy (kill)” value is 100%. Moreover, in series [10] (setting [11]), the chromatographic logP came to 3.13.

In series [7] (100 g/ha), `CCS(=O)(=O)c1ccc(-c2cccs2)nc1-c1nc2cc(C(F)(F)F)ncc2n1C` [Example 79] yielded an efficacy of 90%.

On to `CCSc1ccc(Cl)nc1-c1nc2cc(C(F)(F)F)ncc2n1C` [2-(6-Chloro-3-ethylsulphanyl-2-pyridyl)-3-methyl-6-(trifluoromethyl)imidazo[4,5-c]pyridine], for which, in series [10] (setting [11]), the chromatographic logP came out at 3.06.

Take `CCS(=O)(=O)c1ccc(-n2cc(C3CC3)cn2)nc1-c1nc2cc(C(F)(F)F)ncc2n1C` [Example 13]: the efficacy in series [1] and in series [8] was 100% each time. In addition, the “efficacy (kill)” value in series [3] turned out to be 100%; in series [4] it was 80%; in [5] (100 ppm), 100%.

`CCS(=O)(=O)c1ccc(-n2cnc(S(C)(=O)=O)n2)nc1-c1nc2cc(C(F)(F)F)ncc2n1C` [Example 5]: the results for the efficacy in [1], in [2] and in series [7] (500 g/ha) were 100%, 90% and 90%, respectively. Besides, the “efficacy (laying of fertile eggs)” value in series [9] is 90%.

Take `CNc1cnc(C(F)(F)C(F)(F)F)cc1N` [II-1, N3-Methyl-6-(1,1,2,2,2-pentafluoroethyl)pyridine-3,4-diamine]: in series [10] (setting [11]), the chromatographic logP was 1.68.

Turning to `CCS(=O)(=O)c1ccc(-n2cc(Cl)cn2)nc1-c1nc2cc(C(F)(F)F)ncc2n1C` [Example 36], the efficacy in [1] and in series [8] was 100% each time. The “efficacy (laying of fertile eggs)” value in [9] was 90%. Further, the results for the “efficacy (kill)” value in [3], in [4] and in series [5] (100 ppm) were 100%, 100% and 85%, respectively.

Consider `CCS(=O)(=O)c1ccc(-c2ccco2)nc1-c1nc2cc(C(F)(F)F)ncc2n1C` [Example 80], for which the efficacy in series [7] (500 g/ha) came out at 90%.

For `CCS(=O)(=O)c1ccc(-n2cc(C#N)cn2)nc1-c1nc2cc(C(F)(F)F)ncc2n1C` [Example 19], the values for the efficacy in series [1], in [8] and in series [2] were 100%, 100% and 90%, respectively. Besides, the “efficacy (kill)” value in series [3], in series [4] and in [5] (100 ppm) was 100% each time.

With `CCS(=O)(=O)c1ccc(-c2ccncc2)nc1-c1nc2cc(C(F)(F)F)ncc2n1C` [Example 78], the efficacy in series [1] was found to be 100%; in series [7] (100 g/ha) it was 90%.

As to `Cn1c(-c2nc(Cl)ccc2Cl)nc2cc(C(F)(F)F)ncc21` [2-(3,6-Dichloro-2-pyridyl)-3-methyl-6-(trifluoromethyl)imidazo[4,5-c]pyridine], the chromatographic logP in series [10] worked out at 2.81.

`CCS(=O)(=O)c1ccc(-n2cc(C(F)(F)F)nn2)nc1-c1nc2cc(C(F)(F)F)ncc2n1C` [Example 24]: the efficacy in series [8] is given as 100%. In addition, the “efficacy (laying of fertile eggs)” value in series [9] was 80%. Also, the “efficacy (kill)” value in series [3] was found to be 100%; in series [5] (100 ppm), 80%.

`CCS(=O)(=O)c1ccc(-n2ccc(CS(C)(=O)=O)n2)nc1-c1nc2cc(C(F)(F)F)ncc2n1C` [Example 40]: the efficacy in series [1] came out at 100%; in series [2], 90%; in [7] (500 g/ha) it was 90%.

As for `CCS(=O)(=O)c1ccc(Cl)nc1-c1nc2cc(C(F)(F)F)ncc2n1C` [2-(6-Chloro-3-ethylsulphonyl-2-pyridyl)-3-methyl-6-(trifluoromethyl)imidazo[4,5-c]pyridine], the chromatographic logP in [10] (setting [11]) was 2.54.

With `CCS(=O)(=O)c1ccc(-n2ncc(C(F)(F)F)n2)nc1-c1nc2cc(C(F)(F)F)ncc2n1C` [Example 30], the efficacy stood at 100% in series [1], 100% in series [8] and 90% in series [2]. Also, in series [9], the “efficacy (laying of fertile eggs)” value was determined as 95%. In series [3], the “efficacy (kill)” value was found to be 100%.

In the case of `CCS(=O)(=O)c1ccc(-n2ccc(C#N)n2)nc1-c1nc2cc(C(F)(F)F)ncc2n1C` [Example 22], the efficacy in [1] and in series [8] was 100% in each case. Also, the “efficacy (laying of fertile eggs)” value in series [9] is 80%. Besides, the “efficacy (kill)” value in series [3] was determined as 100%; in [4] it was 100%; in [5] (100 ppm), 80%.

For the molecule `CCS(=O)(=O)c1ccc(-n2cc(F)cn2)nc1-c1nc2cc(C(F)(F)C(F)(F)F)ncc2n1C` [Example 59], the efficacy in series [1] and in series [8] was 100% each time. Further, the “efficacy (laying of fertile eggs)” value in series [9] stood at 90%. Besides, the “efficacy (kill)” value in series [3] turned out to be 100%; in [4] it was 100%; in [5] (100 ppm) it was 95%.

As for `CCS(=O)(=O)c1ccc(-n2cc(C(F)(F)F)cn2)nc1-c1nc2cc(C(F)(F)F)ncc2n1C` [Example 26, 2-[3-Ethylsulphonyl-6-[4-(trifluoromethyl)pyrazol-1-yl]-2-pyridyl]-3-methyl-6-(trifluoromethyl)-imidazo[4,5-c]pyridine], the efficacy in [1] and in [8] was 100% in each case. In addition, the “efficacy (kill)” value in series [3] is 100%; in series [5] (100 ppm), 90%. For the same molecule, the chromatographic logP in [10] (setting [11]) came to 3.34.
